# Assays:
# [1] = biological target: T1, CRAC channel (Homo sapiens, UniProt Q96D31); assay: HEK Calcium Influx Assay (FLIPR), inhibition of store-operated Ca2+ entry after thapsigargin store depletion; assay type: cell-based; conditions: 10 μM compound, HEK293 cells, read-out: % inhib. [@ 10 μM] FLIPR
# T1 construct: endogenous in cells; host or cells: HEK293 (ECACC), untransfected
# Procedure, shortened: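 HEK293 cells loaded with Calcium-4 dye in Ca2+-free HBS (pH 7.4), stores depleted with 2 μM thapsigargin for 10 min (100 μM EGTA); after 3 mM CaCl2 re-addition and 15 min steady-state, compounds added and FLIPR signal averaged 9.5–10 min post-dose. IC50 from 8-point 1:3.16 dilutions from 10 μM, normalised to DMSO and non-depleted wells.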
# [2] = tested on: Interleukin-2 (IL-2) production/release in Jurkat T cells; assay: Jurkat IL-2 Production Assay (PHA-stimulated, IL-2 AlphaLisa); assay type: cell-based; conditions: Homo sapiens, PHA 15 μg/ml, 22 h, inhibition of IL-2 production
# Procedure, shortened: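 Jurkat E6-1 cells (5*10^5/well, DMEM/F12 with 10% FCS) pretreated 30 min with compound, then stimulated 22 h with 15 μg/ml PHA at 37 °C. IC50 from 8-point 1:3.16 dilution starting at 10 μM.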
# T1 sequence (Q96D31 whole entry): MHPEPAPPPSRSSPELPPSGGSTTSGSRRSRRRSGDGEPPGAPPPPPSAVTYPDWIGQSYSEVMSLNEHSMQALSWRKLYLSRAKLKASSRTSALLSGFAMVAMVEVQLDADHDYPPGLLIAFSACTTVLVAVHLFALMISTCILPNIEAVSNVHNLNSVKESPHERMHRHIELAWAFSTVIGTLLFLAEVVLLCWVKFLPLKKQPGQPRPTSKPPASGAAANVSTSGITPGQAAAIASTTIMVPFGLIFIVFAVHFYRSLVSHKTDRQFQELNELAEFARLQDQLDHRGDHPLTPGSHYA
structure (smiles),measurement,setting,value
"Cc1sc(-c2cncnc2)nc1N1CCc2[nH]c(-c3c(F)cccc3F)cc2C1 [Example 30, 4-[2-(2,6-Difluoro-phenyl)-4,5,6,7-tetrahydro-1H-pyrrolo[3,2-c]pyridin-5-yl]-5-methyl-2-pyrimidin-5-yl-thiazole]",inhibition at 10 µM,[1],> 70%
same,IC50,[2],0.5 to 1 µM

# — US20160151337A1, “ANNELATED PYRROLES AND THEIR USE AS CRAC INHIBITORS” (Grünenthal GmbH, priority 2013, published 2016)
